{"source": "patent US5283321A", "about": "(priority 1986, dated 1994)", "key": {"[1]": {"tested_on": "spleen cells from a NMRI mouse", "experiment": "LAF assay, lymphocyte or thymocyte proliferating activity (3H-thymidine incorporation)", "format": "cell-based", "conditions": "48 h + 16 h with 3H-thymidine"}, "purified pertussis toxin [2]": {"tested_on": "purified pertussis toxin", "experiment": "Immunization of mice with the synthetic peptide, ELISA of sera against native pertussis toxin", "format": "in vivo, mice (NMRI)", "conditions": "sera two months after third dose"}, "[3]": {"tested_on": "antibodies in rabbit sera", "experiment": "ELISA, reaction between the synthetic peptide (BSA-coupled coating antigen) and antibodies in rabbit sera", "format": "binding", "conditions": "goat anti-rabbit conjugate 1/500, plates read after 3 min, peptide coupled to BSA as coating antigen"}, "alkaline phosphatase": {"tested_on": "alkaline phosphatase", "experiment": "Similar ELISA experiment where enzyme alone was used", "format": "binding", "conditions": "enzyme alone instead of conjugate", "from_the_text": "That the synthesized peptide reacted with and bound to the respective conjugate was further shown by the ability of the conjugates alone to bind the peptide."}, "[4]": {"tested_on": "alkaline phosphatase goat anti-rabbit Ig conjugate", "experiment": "ELISA, reaction between the synthetic peptide and conjugate only (goat anti-rabbit)", "format": "binding", "conditions": "no serum, plates read after 5 min", "description": "(§1) The above synthesized peptide was coupled to a carrier, i.e. bovine serum albumin (BSA) in the following manner to form a peptide antigen (coating antigen) which was used in ELISA.\n(§2) Fractions containing coupled material were pooled and the pooled material was used in ELISA as coating antigen and was added directly, without any previous dilution, to the microplate.\n(§3) PERFORMANCE 1. Coating of microplates. Microplates were incubated with 0.1 ml of antigen in PBS at room temperature (20°-25° C.) over night.\n(§4) 2. Incubation with bovine serum albumin (BSA) and serum. The plates were washed four times and then incubated with 0.1 ml of 1% (w/v) BSA in PBS at 37° C. for one hour. After washing, 0.1 ml of serum appropriately diluted in incubation buffer, was added to the wells and the plate(s) was incubated at room temperature for one hour.\n(§5) 3. Incubation with conjugate. After washing, 0.1 ml of conjugate appropiately diluted in incubation buffer, was added to the wells and the plate(s) was incubated at room temperature for two hours.\n(§6) 4. After washing, 0.1 ml of the enzyme substrate solution was added to the wells. The plates were kept at room temperature and the absorbance at 405 nm was read after the time indicated below. […]\n(§7) The plates were read at times indicated below in an automated ELISA-reader (Titertek, Multiscan). […]"}, "[5]": {"tested_on": "alkaline phosphatase swine anti-human IgG conjugate", "experiment": "ELISA, reaction between the synthetic peptide and conjugate only (swine anti-human)", "format": "binding", "conditions": "no serum, plates read after 13 min", "description": "as §1, §2, §3, §4, §5, §6, §7"}, "purified pertussis toxin [6]": {"tested_on": "purified pertussis toxin", "experiment": "Challenge of immunized mice with purified pertussis toxin, survival", "format": "in vivo, mice (NMRI)", "conditions": "challenge 20 μg/mouse=5×LD50"}, "antibodies in human sera": {"tested_on": "antibodies in human sera", "experiment": "ELISA, reaction between the synthetic peptide (BSA-coupled coating antigen) and antibodies in human sera", "format": "binding", "conditions": "swine anti-human conjugate 1/100, plates read after 20 min, peptide coupled to BSA as coating antigen"}}, "note": "Peptide text beside a SMILES is read from it.", "data": [{"compound": "Phytohaemagglutinin [PHA]", "values": [{"measurement": "cpm (range of triplicates)", "setting": "[1]; 2.5 μg per well", "result": "6700-8100 cpm"}, {"measurement": "cpm (range of triplicates)", "setting": "[1]; 5 μg per well", "result": "9800-10400 cpm"}, {"measurement": "cpm (range of triplicates)", "setting": "[1]; 7 μg per well", "result": "7000-8100 cpm"}]}, {"compound": "CC(C)[C@H](NC(=O)[C@H](CO)NC(=O)[C@H](CCCNC(=N)N)NC(=O)[C@H](CCCNC(=N)N)NC(=O)[C@H](CO)NC(=O)[C@@H](NC(=O)[C@H](Cc1ccc(O)cc1)NC(=O)[C@@H]1CCCN1C(=O)[C@H](CC(N)=O)NC(=O)[C@@H]1CCCN1C(=O)[C@H](CC(N)=O)NC(=O)[C@H](C)NC(=O)[C@H](CCCNC(=N)N)NC(=O)[C@@H](NC(=O)[C@H](CCC(N)=O)NC(=O)[C@@H](N)CCCCN)[C@@H](C)O)[C@@H](C)O)C(=O)N[C@@H](C)C(=O)N[C@@H](CO)C(=O)O", "note": "[The synthetic peptide, H--Lys--Gln--Thr--Arg--Ala--Asn--Pro--Asn--Pro--Tyr--Thr----Ser--Arg--Arg--Ser--Val--Ala--Ser--OH] (H-KQTRANPNPYTSRRSVAS-OH)", "values": [{"measurement": "Mean Titre", "setting": "purified pertussis toxin [2]; endpoint titre against pertussis toxin, cut off absorbance 0.1, 17 mice", "result": 2334}, {"measurement": "Titre Range", "setting": "purified pertussis toxin [2]; endpoint titre against pertussis toxin, cut off absorbance 0.1", "result": "320-40960"}, {"measurement": "Responders", "setting": "purified pertussis toxin [2]; of 17 mice, s.c. 3×0.5 ml BSA-coupled peptide antigen on aluminium hydroxide, one month apart", "result": 15}, {"measurement": "Absorbance at 405 nm", "setting": "[3]; serum Rabbit 1 diluted 1/500", "result": 1.21}, {"measurement": "Absorbance at 405 nm", "setting": "[3]; serum Rabbit 2 diluted 1/500", "result": 1.05}, {"measurement": "Binding of the peptide to alkaline phosphatase enzyme alone", "setting": "alkaline phosphatase", "result": "no binding was observed"}, {"measurement": "Absorbance at 405 nm", "setting": "[4]", "result": 1.23}, {"measurement": "cpm (range of triplicates)", "setting": "[1]; 1 μg per well", "result": "3000-4200 cpm"}, {"measurement": "cpm (range of triplicates)", "setting": "[1]; 10 μg per well", "result": "7000-8500 cpm"}, {"measurement": "Absorbance at 405 nm", "setting": "[5]", "result": 0.84}, {"measurement": "Days of survival (mean)", "setting": "purified pertussis toxin [6]; immunized mice with endpoint titre 80-40960 (17 mice)", "result": 3.765, "unit": "days"}, {"measurement": "Days of survival (mean)", "setting": "purified pertussis toxin [6]; immunized mice with endpoint titre 320-40960 (15 mice)", "result": 4.000, "unit": "days"}, {"measurement": "Days of survival (mean)", "setting": "purified pertussis toxin [6]; immunized mice with endpoint titre 640-40960 (14 mice)", "result": 3.929, "unit": "days"}, {"measurement": "Days of survival (mean)", "setting": "purified pertussis toxin [6]; immunized mice with endpoint titre 1280-40960 (10 mice)", "result": 4.600, "unit": "days"}, {"measurement": "Days of survival (mean)", "setting": "purified pertussis toxin [6]; immunized mice with endpoint titre 2560-40960 (8 mice)", "result": 4.875, "unit": "days"}, {"measurement": "Days of survival (mean)", "setting": "purified pertussis toxin [6]; immunized mice with endpoint titre 5120-40960 (6 mice)", "result": 5.333, "unit": "days"}, {"measurement": "Days of survival (mean)", "setting": "purified pertussis toxin [6]; immunized mice with endpoint titre 10240-40960 (3 mice)", "result": 6.333, "unit": "days"}, {"measurement": "Absorbance at 405 nm", "setting": "antibodies in human sera; serum Human 1 (one individual) diluted 1/500", "result": 1.11}, {"measurement": "Absorbance at 405 nm", "setting": "antibodies in human sera; serum Human 2 (pool of human sera) diluted 1/500", "result": 1.26}]}]}
